This is an account of results in patent publication US4665068A, “Novel 9-chloro-1,5-benzothiazepine derivatives and their pharmaceutical use” (Tanabe Seiyaku Co., Ltd., priority 1984, dated 1987).

One data set concerns platelet aggregation. As to the kind of experiment: Platelet aggregation-inhibiting activity (collagen, platelet-rich plasma, Born's method). Type of data set: cell-based, rat (male Sprague-Dawley). Details: key to the marks not given beside the values. Conditions: final concentration 100 μg/ml, rat PRP, 37° C. The source says: (Platelet aggregation-inhibiting activity)
Blood was collected from the abdominal aorta of male Sprague-Dawley rats which were anesthetized with ether. Nine volumes of rat blood were mixed with one volume of an aqueous trisodium citrate solution, and the mixture was centrifuged to give platelet-rich plasma ("PRP") as the supernatant solution. The bottom layer was further centrifuged to give platelet-poor plasma ("PPP") as the supernatant solution. Platelet counts were adjusted to 0.8-1×10^6 /mm^3 for PRP by dilution with PPP. After a mixture of 200 μl of the diluted PRP and 25 μl of a test compound solution (final concentration: 100 μg/ml) was stirred for 2 minutes at 37° C., 25 μl of a collagen solution [Biochim. Biophys.

In data set [1] the test system is coronary blood flow of the isolated heart of guinea pig. As to the kind of experiment: Coronary vasodilating activity, Langendorff's method, isolated heart of guinea pig. Conditions: for Coronary vasodilating activity: isolated guinea pig heart. The source says:
(§1) On the other hand, when the coronary vasodilating activity is estimated by the Langendorff method using isolated hearts of guinea pigs, said activity of (+)-cis-2-(4-methoxyphenyl)-3-acetoxy-5-[2-(dimethylamino)ethyl]-9-chloro- 2,3-dihydro-1,5-benzothiazepin-4(5H)-one hydrochloride is about 10 times stronger than that of papaverine.
(Coronary vasodilating activity)
Langendorff's method was used for testing the effect on the coronary blood flow of the isolated heart of guinea pig (about 280 g). The isolated heart was perfused with Locke-Ringer solution containing 2% of defibrinated rabbit blood, which had been saturated with a mixed gas of 95% O2 and 5% CO2 (30° C.). Perfusion pressure was kept at 40 cm H2 O. A solution of a test compound in an aqueous 5% glucose solution was injected into the perfusing solution at a volume of 0.1 ml per heart. The outflow of the perfusate was measured by means of a drop counter.
The coronary vasodilating activity of the test compound was expressed as "±" if the increase in coronary blood flow is less than 0.5 ml/minute at a dose of 100 μg/heart; "+" if the increase is not less than 0.5 ml/minute at a dose of 100 μg/heart; "++" if the increase is not less than 0.5 ml/minute at a dose of 30 μg/heart; and "+++" if the increase is not less than 0.5 ml/minute at a dose of not more than 10 μg/heart.

Data set [2] relates to spontaneously hypertensive rats (SHR). The data set can be described thus: Hypotensive activity, systolic blood pressure of SHR after oral dosing (tail plethysmographic technique). Type of data set: in vivo, rat (spontaneously hypertensive. The note with it: 30 mg/kg oral.
Experimental: A test compound (dose: 30 mg/kg) dissolved or suspended in water was administered orally to spontaneously hypertensive rats (SHR) (one group: 3 rats) fasted overnight. […] The hypotensive activity of the test compound was estimated at one or 4 hours after dosing and expressed as "-" if the decrease in blood pressure is less than 10 mm Hg; "+" if the decrease is not less than 10 mm Hg but less than 20 mm Hg; "++" if the decrease is not less than 20 mm Hg but less than 40 mm Hg; "+++" if the decrease is not less than 40 mm Hg but less than 60 mm Hg; or "++++" if the decrease is not less than 60 mm Hg.
For data set [3], the system named is vertebral artery blood flow. As to the kind of experiment: Cerebral vasodilating activity, blood flow in vertebral artery of anesthetized dogs. Type of data set: in vivo, dog (male). The note with it: for increase in vertebral artery blood flow / cerebral vasodilating activity, times stronger than the 7-chloro derivative: intraarterial; for cerebral vasodilating activity, times stronger than the 7-chloro derivative: vs (±)-cis-3-acetoxy-7-chloro derivative hydrochloride; for Cerebral vasodilating activity (potency ratio): potency ratio to papaverine from dose-response curves, injected into vertebral artery. As to the method:
as §1
(Cerebral vasodilating activity)
Male dogs weighing 10 to 20 kg were anesthetized with sodium pentobarbital (30 mg/kg, intravenous injection). The blood flow in vertebral artery was measured continuously by means of an electromagnetic flowmeter under artificial respiration. A test compound dissolved in an aqueous 5% glucose solution was injected into vertebral artery. The cerebral vasodilating activity of the test compound was estimated in terms of the potency ratio of said compound to papaverine, which was calculated from the dose-response curves thereof.

Data set [4] is described as follows: Acute toxicity, oral, mice. Conditions: mouse, in vivo. As to the method:
For example, the acute toxicity (LD50) of (+)-cis-2-(4-methoxypnenyl)-3-acetoxy-5-[2-(dimethylamino)ethyl]-9-chloro- 2,3-dihydro-1,5-benzothiazepin-4(5H)-one hydrochloride when orally administered to mice is about 1,000 mg/kg.

As usually defined, the LD50 is the dose expected to kill half of the subjects tested.

Counter-ions that a name gives are not always drawn.

Regarding `COc1ccc([C@@H]2Sc3c(Cl)cccc3N(CCN(C)C)C(=O)[C@@H]2O)cc1.Cl` (racemic) [(±)-cis-2-(4-methoxyphenyl)-3-hydroxy-5-[2-(dimethylamino)ethyl]-9-chloro-2,3-dihydro-1,5-benzothiazepin-4(5H)-one hydrochloride], the Platelet aggregation-inhibiting activity result in the data set with platelet aggregation was “++”. In addition, in data set [1], the Coronary vasodilating activity entry is on record as “+++ (increase is not less than 0.5 ml/minute at a dose of not more than 10 μg/heart)”.

For the compound `COc1ccc([C@@H]2Sc3ccc(Cl)cc3N(CCN(C)C)C(=O)[C@@H]2OC(C)=O)cc1` (relative stereo) [(+)-cis-2-(4-methoxyphenyl)-3-acetoxy-5-[2-(dimethylamino)ethyl]-7-chloro-2,3-dihydro-1,5-benzothiazepin-4(5H)--one hydrochloride, reference compound], in data set [2], the “Hypotensive activity, 1 hr after dosing” value is “++ (decrease is not less than 20 mm Hg but less than 40 mm Hg)” and the “Hypotensive activity, 4 hrs after dosing” value is recorded as “+ (decrease is not less than 10 mm Hg but less than 20 mm Hg)”.

Regarding `COc1ccc([C@@H]2Sc3c(Cl)cccc3N(CCN(C)C)C(=O)[C@@H]2OC(C)=O)cc1.Cl` (racemic) [(±)-cis-2-(4-methoxyphenyl)-3-acetoxy-5-[2-(dimethylamino)ethyl]-9-chloro-2,3-dihydro-1,5-benzothiazepin-4(5H)-one hydrochloride], in data set [2], the “Hypotensive activity, 1 hr after dosing” value is listed as “+++ (decrease is not less than 40 mm Hg but less than 60 mm Hg)” and the “Hypotensive activity, 4 hrs after dosing” value is listed as “+++ (decrease is not less than 40 mm Hg but less than 60 mm Hg)”. The Platelet aggregation-inhibiting activity result with platelet aggregation is reported as “++”. Also, the Coronary vasodilating activity result in data set [1] is given as “+++ (increase is not less than 0.5 ml/minute at a dose of not more than 10 μg/heart)”.

Consider `COc1ccc([C@@H]2Sc3c(Cl)cccc3N(CCN(C)C)C(=O)[C@@H]2O)cc1.[O-][Cl+3]([O-])([O-])O` (single isomer, unassigned) [(+)-cis-2-(4-methoxyphenyl)-3-hydroxy-5-[2-(dimethylamino)ethyl]-9-chloro-2,3-dihydro-1,5-benzothiazepin-4(5H)-one perchlorate], for which, in data set [2], the “Hypotensive activity, 1 hr after dosing” value is reported as “+++ (decrease is not less than 40 mm Hg but less than 60 mm Hg)” and the “Hypotensive activity, 4 hrs after dosing” value is recorded as “++ (decrease is not less than 20 mm Hg but less than 40 mm Hg)”. In addition, the Coronary vasodilating activity result in data set [1] was “+++ (increase is not less than 0.5 ml/minute at a dose of not more than 10 μg/heart)”. In addition, in data set [3], the “increase in vertebral artery blood flow” value is reported as “remarkable increase in vertebral artery blood flow”; the “cerebral vasodilating activity, times stronger than the 7-chloro derivative” value was “more than 3 times”; the “Cerebral vasodilating activity (potency ratio)” value is reported as 22.

`COc1ccc([C@@H]2Sc3ccc(Cl)cc3N(CCN(C)C)C(=O)[C@@H]2OC(C)=O)cc1.Cl` (racemic) [(±)-cis-2-(4-methoxyphenyl)-3-acetoxy-5-[2-(dimethylamino)ethyl]-7-chloro-2,3-dihydro-1,5-benzothiazepin-4(5H)-one hydrochloride, reference compound]: the “Cerebral vasodilating activity (potency ratio)” value in data set [3] is listed as 5.

With `COc1ccc(Cc2nccc3cc(OC)c(OC)cc23)cc1OC` [Papaverine, reference compound], the Coronary vasodilating activity entry in data set [1] was “+ (increase is not less than 0.5 ml/minute at a dose of 100 μg/heart)”.

Take `COc1ccc([C@@H]2Sc3c(Cl)cccc3N(CCN(C)C)C(=O)[C@@H]2OC(C)=O)cc1.Cl` (single isomer, unassigned) [(+)-cis-2-(4-methoxyphenyl)-3-acetoxy-5-[2-(dimethylamino)ethyl]-9-chloro-2,3-dihydro-1,5-benzothiazepin-4(5H)-one hydrochloride]: the “decrease in blood pressure, one hour after administration” value in data set [2] (1 hour) was “about 74 mm Hg”. In addition, in data set [2], the “Hypotensive activity, 1 hr after dosing” value is “++++ (decrease is not less than 60 mm Hg)” and the “Hypotensive activity, 4 hrs after dosing” value is “+++ (decrease is not less than 40 mm Hg but less than 60 mm Hg)”. Moreover, the “decrease in blood pressure, 4 hours after administration” value in data set [2] (4 hours) was around 54 mm Hg. Also, in data set [1], the Coronary vasodilating activity entry was “+++ (increase is not less than 0.5 ml/minute at a dose of not more than 10 μg/heart)”. Moreover, the “coronary vasodilating activity, times stronger than papaverine” value in data set [1] (isolated guinea pig hearts, vs papaverine) is “about 10 times”. Also, the LD50 in data set [4] is around 1000 mg/kg. For the same compound, in data set [3], the “increase in vertebral artery blood flow” value was “remarkable increase in vertebral artery blood flow”; the “cerebral vasodilating activity, times stronger than the 7-chloro derivative” value was “more than 3 times”; the “Cerebral vasodilating activity (potency ratio)” value was 15.
